We go through 1 compound from US11596670B2, “Treatment of a disease of the gastrointestinal tract with IL-10 or an IL-10 agonist” (BIORA THERAPEUTICS, INC., priority 2017, dated 2023).

By AUC is commonly meant concentration integrated over time. Lower therefore signals low exposure. Broadly, the AUC(0-t) is exposure summed from dosing to a finite time, without extrapolation to infinity. The low end stands for less exposure, the high end for more exposure. Usually Cmax stands for the highest concentration seen after dosing.

Structures are written as SMILES.

One data set can be described thus: in vivo. As to the method:
The primary objective of this study was to study the pharmacokinetics of oral versus intra-cecal administration of tacrolimus in normal Yorkshire-Cross farm swine.
This study compares the effects of administration of: a single intra-cecal administration of a device containing 0.8 mL sterile vehicle solution (80% alcohol, 20% castor oil (HCO-60)); a single oral dose of tacrolimus at 0.09 mg/kg (in sterile vehicle solution); and a single intra-cecal administration of a device containing either 0.02 mg/kg (in sterile vehicle solution), 0.04 mg/kg (in sterile vehicle solution), or 0.09 mg/kg (in sterile vehicle solution).
This study employed five groups of three female swine weighing approximately 45 to 50 kg at study start. Swine were randomly placed into animal rooms/pens as they are transferred from the delivery vehicle without regard to group. Group numbers were assigned to the rooms in order of room number. No further randomization procedure was employed.
Animals in Group 1 received intra-cecally a device containing a vehicle solution (80% alcohol, 20% HCO-60). Animals in Group 2 received orally a liquid formulation of tacrolimus at 0.09 mg/kg per animal. Animals in Group 3 received intra-cecally a device containing tacrolimus at 0.02 mg/kg per device. Animals in Group 4 received intra-cecally a device containing tacrolimus 0.04 mg/kg per device. Animals in Group 5 received intra-cecally a device containing tacrolimus 0.09 mg/kg per device.

Data set [1] can be described thus: Tissue, plasma, rectal sample and GI content pharmacokinetics of tacrolimus, oral vs. intra-cecal ingestible device (Example 10). More on the design: species or system Yorkshire-Cross farm swine. To be noted: in vivo; for Cmax: female, Yorkshire-Cross, pig, IC capsule. As to the method: No further randomization procedure was employed.
Animals in Group 1 received an ingestible device containing 0.8 mL of vehicle solution (80% alcohol, 20% HCO-60). Animals in Group 2 received orally […] liquid formulation of tacrolimus at 4 mg/0.8 mL per animal (Prograf: 5 mg/mL). Animals in Group 3 received intra-cecally an ingestible device containing tacrolimus at 1 mg in 0.8 mL per ingestible device. Animals in Group 4 received intra-cecally an ingestible device containing tacrolimus at 2 mg in 0.8 mL per ingestible device. Animals in Group 5 received intra-cecally an ingestible device containing tacrolimus at 4 mg in 0.8 mL per ingestible device. To control for potential confounding effects of the surgery, all groups fast on Day −11 at least 24 hr before being subjected to anesthesia followed by surgical placements of a cecal port by a veterinary surgeon at Day −10. All animals were fasted for at least 12 hr prior to dosing on Day 1. Animals were dosed via either intra-cecal dosing (IC) or oral dosing (PO) at Day 1 (between 6-8 p.m.). All animals resumed feeding at approximately 4 hours after dose (11-12 p.m. after dosing).
Animals in Group 1 (Vehicle Control) were administered a single intra-cecal ingestible device containing 0.8 mL Vehicle solution (80% alcohol, 20% castor oil (HCO-60) on Day 1. On Day −10 the animals were anesthetized, and a veterinary surgeon surgically placed an intra-cecal port in each animal. On Day 1, each animal was placed into a sling then a single intra-cecal ingestible device containing 0.8 mL vehicle solution (80% alcohol, 20% castor oil (HCO-60)) is introduced by the veterinary surgeon into the cecum via the cecal port in each animal. Following ingestible device placement, the animals were removed from the slings and placed back into their pens with water. All animals resumed feeding at approximately 4 hours after dose. […] A total of 60 samples were collected.
Approximately 200˜400 mg of rectal content were collected, if available, with a fecal swab (Copan Diagnostics Nylon Flocked Dry Swabs, 502CS01). The fecal swab was pre-weighed and weighed after collection in the collection tube (Sterile Tube and Cap No Media, PFPM913S), and the sample weight was recorded. The fecal swab was broken via the breakpoint, and was stored in the collection tube, and immediately frozen at −70° C. […] Immediately following euthanasia, tissue was collected.
For tissue necropsy, small intestine fluid and cecal fluid were collected separately from all the animals into two separate square plastic bottles, and stored at −20° C. The length and diameter of the cecum and the colon was measured from one animal in each group and recorded for reference. Tissues were collected for pharmacokinetic analyses and include mesenteric lymph nodes, a Peyer's Patch, and five gastrointestinal sections, including cecum, proximal colon, transverse colon, distal colon, and rectum. All samples were weighed, and the tissue sample weights were recorded. In each of the five gastrointestinal sections, tissue samples were collected in three different areas where the mucosal surface was visible and not covered by luminal content by using an 8.0-mm punch biopsy tool. Around 3 grams of the total punched sample were collected into a pre-weighed 15-mL conical tube, and the tissue weight was recorded. Three mesenteric lymph nodes were collected from different areas and weighed. At least one Peyer's Patch was collected and weighed.
Luminal contents were collected for pharmacokinetic analyses from the surface of the tissue from each of five gastrointestinal sections: cecum, proximal colon, transverse colon, distal colon, and rectum (total of 75).

The mark [2] stands for this setting: female, Yorkshire-Cross, pig, in vivo, 0.02 mg/kg.
[3] abbreviates: female, Yorkshire-Cross, pig, in vivo, 0.09 mg/kg.

On to `C=CC[C@@H]1/C=C(\C)C[C@H](C)C[C@H](OC)[C@H]2O[C@@](O)(C(=O)C(=O)N3CCCC[C@H]3C(=O)O[C@H](/C(C)=C/[C@@H]3CC[C@@H](O)[C@H](OC)C3)[C@H](C)[C@@H](O)CC1=O)[C@H](C)C[C@@H]2OC` [tacrolimus], for which the AUC in “in vivo” (female, Yorkshire-Cross, pig, 0.02 mg/kg) was found to be 0.0153 ± 0.00236 µg·h/mL; in the data set “in vivo” (female, Yorkshire-Cross, pig, 0.04 mg/kg) it was 0.0513 ± 0.00404 µg·h/mL; in the data set “in vivo” (setting [3]), 0.13 ± 0.00783 µg·h/mL; in “in vivo” (female, Yorkshire-Cross, pig, po, 0.09 mg/kg), 0.0168 ± 0.00364 µg·h/mL. In addition, the AUC(0-t) in “in vivo” (setting [2]) is 0.0153 µg·h/mL; in “in vivo” (female, Yorkshire-Cross, pig, in vivo, 0.04 mg/kg), 0.0513 µg·h/mL; in the data set “in vivo” (setting [3]) it was 0.13 µg·h/mL; in the data set “in vivo” (female, Yorkshire-Cross, pig, in vivo, po, 0.09 mg/kg), 0.0168 µg·h/mL. Also, the results for the Cmax (in “in vivo” (setting [2]); in data set [1] (high (0.09 mg/kg) dose (first value)); in data set [1] (moderate (0.04 mg/kg) dose)) were 2.39 ± 0.57 ng/mL, 9.2 ± 3.3 ng/mL and 21.8 ± 4.73 ng/mL, respectively. Also, the concentration at 12 h in “in vivo” (female, Yorkshire-Cross, pig, po, 0.09 mg/kg, Trough (12 hr)) came out at 0.568 ± 0.291 ng/mL. The compound further came in with a Kp at 12 h in “in vivo” (female, Yorkshire-Cross, swine, po, 0.09 mg/kg) of 0. In addition, the “Ratio Tissue (mean) (ng/g)/ Trough(12 hr)(ng/ml)” value in “in vivo” (female, Yorkshire-Cross, swine, po, 0.09 mg/kg, 12 h) came out at 0. In addition, the “mean concentration and AUC0-12 hours of tacrolimus in the blood” value in the data set “in vivo” (po, 0.09 mg/kg) is recorded as “higher”. Further, the “luminal content (spiral, transverse, and distal colon) concentrations” value in data set [1] is “Significantly higher”. For the same compound, the “mean concentration of tacrolimus in the cecum tissue and the proximate colon tissue” value in data set [1] is “higher”. In data set [1], the “tissue (spiral and transverse colon) concentrations” value is “Significantly higher”. In data set [1] (po), the “level of tacrolimus in tissue” value was “No measurable level”.
